Values joined by “and” are separate entries in the source; they are usually repeats but may differ in a detail not shown here. Identical values can stand only once. Like-named read-outs stand apart in the source and are kept apart here.
Experiments:
bacteria = assay: Tap water and polluted water treated with NDBA: bacteria count and BSI; type: cell-based; details: 300 grams water, 32° C.
Murine norovirus = assay: ASTM E1052 Kill Time Screen test, antiviral activity; type: cell-based
rat = assay: LD50 (rat, oral); type: in vivo; details: extrapolated from rat LD50 4250 mg/kg
Coniophora puteana = assay: Wood impregnation with 10 and 20% NBDA, 6 weeks of exposure; type: cell-based; details: for Corrected mass loss, Mean / Mass loss, Mean / Corrected mass loss / Mass loss: 6 weeks of exposure; for Corrected mass loss, Mean / Mass loss, Mean: mean of blocks; for Corrected mass loss / Mass loss: single blocks
Description: Below table presents results from impregnation with 10 and 20% NBDA to water phase. It is expected that concentrations of up to at least 35% NBDA and/or APDEA and/or 2,2′-(octylimino)bisethanol are showing promising results.

Vaccinia = assay: ASTM E1052 Kill Time Screen test, antiviral activity; type: cell-based
Poliovirus = type: cell-based
[1] = tested on: Coriolus versicolor. CTB 863 A; assay: EN 113 test against wood destroying basidiomycetes; type: cell-based; details: for Corrected mass loss, Mean / Mass loss, Mean: mean of blocks; for Corrected mass loss / Mass loss: single blocks
Protocol: EN 113, 2020: Durability of wood and wood-based products-Test method against wood destroying basidiomycetes. Assessment of biocidal efficacy of wood preservatives. […] The impregnation process was carried out on 24-03-2021 with the following conditions: Pre-vacuum at 0.1 bar for 30 minutes. Pressure of 13 bars for 60 minutes. Beech (Fagus sylvatica L.) for white rot fungi (Coriolus versicolor) with an average density 725 kg/m3. 4 weeks according to EN 113 at 65% RH and 20° C. until stable mass was obtained. Ionising radiation (2× 25 kGy).

[2] = tested on: Enterococcus hierae, ATCC 10541; assay: EN 1276 quantitative suspension test, bactericidal activity; type: cell-based, Enterococcus hirae; details: all tested contact times (5, 60 min) and concentrations (1.5%, 3%, 6%)
Protocol: (§1) The test was carried out according to EN 1276, 2019: Chemical disinfectants and antiseptics-Quantitative suspension test for the evaluation of bactericidal activity of chemical disinfectants and antiseptics used in food, industrial, domestic, and institutional areas-Test method and requirements. […] The growth media TSB (Tryptic Soy Broth) was separately inoculated with a culture loop of the microorganisms. The cultures were incubated at 37° C. for 24 hours. Bovine Serum Albumin with a final concentration of 3 g/L Polysorbate 80 with a concentration of 30 g/L The used method was Dilution-neutralization method. 1 mL of interfering substance was pipetted into a tube and 1 mL of the test suspension was added and mixed. […] The solution was incubated at 20° C. for 5 min. and 60 min. respectively. […] After 5 min. of neutralization time 100 μL of the mixture was added to a petri-dish containing TSA media. Another 100 μL was added to a tube containing 900 μL 0.9% NaCl and a serial dilution to 10^-5 was made. The mixtures added to the agar plates were evenly distributed with a Drigalski-spatula. The agar plates were incubated at 37° C. for 24 hours. After incubation, the number of surviving bacteria (CFU) was counted. The test was performed in 3 replicates.

[3] = tested on: Escherichia coli, ATCC 10536; assay: as above; type: cell-based
Protocol: as §1

Q: How did the BSI (bacteria; Polluted water + 0.5%) turn out when `CCCCN(CCO)CCO` [NBDA, N-butyldiethanolamine] was run?
A: Its BSI is 48.

Q: And the bacteria count (bacteria; Polluted water + 0.5%)?
A: Its bacteria count is 56.2.

Q: And the BSI (bacteria; Tapwater + 0.5%)?
A: The BSI was 56.

Q: And the bacteria count (bacteria; Tapwater + 0.5%)?
A: The bacteria count was 7.35.

Q: What about the “Mean log reduction after 60 seconds” value (Murine norovirus; 1.0% NBDA) of the same compound?
A: The value was 0.34.

Q: And the “Mean log reduction after 60 seconds” value (Murine norovirus; 5.0% NBDA)?
A: The value was 0.34.

Q: What about the “Norovirus eliminated (destroyed) in 60 seconds” value (Murine norovirus; from log reduction 0.34) of the same compound?
A: Its value is 54%.

Q: And the “human consummation equivalent to LD50” value (rat)?
A: The value was 319 gram pr 75 kg.

Q: And the “wood protection at high concentrations” value (Coniophora puteana; impregnation with 10 and 20% NBDA to water phase)?
A: Its value is “strong results”.

Q: And the “Corrected mass loss, Mean” value (Coniophora puteana; solution conc. 10.00 % w/w)?
A: Its value is 0.3%.

Q: What about the “Mass loss, Mean” value (Coniophora puteana; solution conc. 10.00 % w/w) of the same compound?
A: Its value is −0.4%.

Q: And the Corrected mass loss (Coniophora puteana; solution conc. 10.00 % w/w)?
A: Its Corrected mass loss is −0.4% and 0.3% and 0.9% and 0.0% and 1.1% and −0.2% and −0.8%.

Q: What about the Mass loss (Coniophora puteana; solution conc. 10.00 % w/w) of the same compound?
A: Its Mass loss is −0.9% and −0.2% and 0.4% and −0.5% and 0.6% and −0.7% and −1.3%.

Q: What about the “Corrected mass loss, Mean” value (Coniophora puteana; solution conc. 20.00 % w/w) of the same compound?
A: Its value is 0.0%.

Q: And the “Mass loss, Mean” value (Coniophora puteana; solution conc. 20.00 % w/w)?
A: The value was −1.5%.

Q: What about the Corrected mass loss (Coniophora puteana; solution conc. 20.00 % w/w) of the same compound?
A: The Corrected mass loss was 0.3% and −0.1% and −0.5% and −0.8% and −0.7% and −0.6%.

Q: And the Mass loss (Coniophora puteana; solution conc. 20.00 % w/w)?
A: Its Mass loss is −0.7% and −1.1% and −1.6% and −1.8% and −1.7%.

Q: What about the “Mean log reduction after 60 seconds” value (Vaccinia; 1.0% NBDA) of the same compound?
A: Its value is 0.17.

Q: And the “Mean log reduction after 60 seconds” value (Vaccinia; 5.0% NBDA)?
A: The value was 0.09.

Q: And the “Mean log reduction after 60 seconds” value (Poliovirus; 1.0% NBDA)?
A: Its value is 0.26.

Q: And the “Mean log reduction after 60 seconds” value (Poliovirus; 5.0% NBDA)?
A: The value was 0.17.

Q: What about the “Toxic value, Retention of product” value ([1]; Beech) of the same compound?
A: The value was over 15.40 kg/m^3.

Q: And the “Toxic value, Solution conc.” value ([1]; Beech)?
A: The value was over 2.20 % w/w.

Q: What about the “Corrected mass loss, Mean” value ([1]; solution conc. 0.55 % w/w) of the same compound?
A: The value was 26.8%.

Q: What about the “Mass loss, Mean” value ([1]; solution conc. 0.55 % w/w) of the same compound?
A: Its value is 26.8%.

Q: What about the Corrected mass loss ([1]; solution conc. 0.55 % w/w) of the same compound?
A: Its Corrected mass loss is 32.3% and 27.5% and 25.6% and 21.8%.

Q: What about the Mass loss ([1]; solution conc. 0.55 % w/w) of the same compound?
A: Its Mass loss is 32.3% and 27.5% and 25.6% and 21.8%.

Q: And the “Corrected mass loss, Mean” value ([1]; solution conc. 0.78 % w/w)?
A: The value was 31.8%.

Q: And the “Mass loss, Mean” value ([1]; solution conc. 0.78 % w/w)?
A: Its value is 31.7%.

Q: What about the Corrected mass loss ([1]; solution conc. 0.78 % w/w) of the same compound?
A: The Corrected mass loss was 26.0% and 25.1% and 31.3% and 44.7%.

Q: What about the Mass loss ([1]; solution conc. 0.78 % w/w) of the same compound?
A: The Mass loss was 25.9% and 25.0% and 31.2% and 44.6%.

Q: And the “Corrected mass loss, Mean” value ([1]; solution conc. 1.09 % w/w)?
A: The value was 31.2%.

Q: What about the “Mass loss, Mean” value ([1]; solution conc. 1.09 % w/w) of the same compound?
A: The value was 30.9%.

Q: What about the Corrected mass loss ([1]; solution conc. 1.09 % w/w) of the same compound?
A: Its Corrected mass loss is 30.5% and 29.8% and 29.4% and 34.9%.

Q: And the Mass loss ([1]; solution conc. 1.09 % w/w)?
A: The Mass loss was 30.2% and 29.5% and 29.2% and 34.6%.

Q: And the “Corrected mass loss, Mean” value ([1]; solution conc. 1.55 % w/w)?
A: The value was 28.3%.

Q: What about the “Mass loss, Mean” value ([1]; solution conc. 1.55 % w/w) of the same compound?
A: Its value is 27.4%.

Q: And the Corrected mass loss ([1]; solution conc. 1.55 % w/w)?
A: Its Corrected mass loss is 28.6% and 26.8% and 27.3% and 30.3%.

Q: And the Mass loss ([1]; solution conc. 1.55 % w/w)?
A: The Mass loss was 27.8% and 25.9% and 26.4% and 29.5%.

Q: What about the “Corrected mass loss, Mean” value ([1]; solution conc. 2.20 % w/w) of the same compound?
A: Its value is 25.7%.

Q: And the “Mass loss, Mean” value ([1]; solution conc. 2.20 % w/w)?
A: The value was 24.1%.

Q: And the “log changes of CFU” value [2]?
A: Its value is “lower than 5 log units”.

Q: And the CFU/plate ([3]; 1.5%, contact time 5 min)?
A: Its CFU/plate is over 165 CFU/plate.

Q: And the log10 reduction ([3]; 1.5%, contact time 5 min)?
A: The log10 reduction was under 5 log10.

Q: What about the CFU/plate ([3]; 1.5%, contact time 60 min) of the same compound?
A: The CFU/plate was over 165 CFU/plate.

Q: What about the log10 reduction ([3]; 1.5%, contact time 60 min) of the same compound?
A: The log10 reduction was under 5 log10.

Q: What about the CFU/plate ([3]; 3.0%, contact time 5 min) of the same compound?
A: Its CFU/plate is over 165 CFU/plate.

Q: And the log10 reduction ([3]; 3.0%, contact time 5 min)?
A: Its log10 reduction is under 5 log10.

Q: What about the CFU/plate ([3]; 3.0%, contact time 60 min) of the same compound?
A: Its CFU/plate is over 165 CFU/plate.

Q: What about the log10 reduction ([3]; 3.0%, contact time 60 min) of the same compound?
A: Its log10 reduction is under 5 log10.

Q: What about the CFU/plate ([3]; 6.0%, contact time 5 min) of the same compound?
A: The CFU/plate was over 165 CFU/plate.

Q: And the log10 reduction ([3]; 6.0%, contact time 5 min)?
A: Its log10 reduction is under 5 log10.

Q: What about the CFU/plate ([3]; 6.0%, contact time 60 min) of the same compound?
A: The CFU/plate was 25 CFU/plate and 29 CFU/plate and 30 CFU/plate.
